Earlier results in patent publication US9738932B2, “Biomarkers for cardiovascular side-effects induced by cox-2 inhibitory compounds” (FIRALIS SAS, priority 2005, dated 2017).

Tested on: CXCL10 synthesis
Conditions: by preventing PGE2 production and PKA activation; cited from earlier work

**Q.** With `CS(=O)(=O)Nc1ccc([N+](=O)[O-])cc1OC1CCCCC1` [NS398] as the compound, how does the “effect on CXCL10 synthesis upon INFγ stimulation” value read?
**A.** potentiates
